Data published in US4272507A, “Phenylaminothiophenacetic acids, their synthesis, compositions and use” (priority 1978, dated 1981).
Where two headings read alike, the source gives them in different places.

Assays:
[1] = versus phenylbutazone; Alpermann 1970, 1972; cited from earlier work
[2] = in vivo; conditions: rat, po
[3] = test system: yeast-induced fever in rats; assay: Antipyretic action: yeast-induced fever in rats; assay type: in vivo, rats (female Sprague-Dawley); conditions: for ED (1.5 degC): Rattus norvegicus, po, read-out: ED1.5 (dose which causes a maximum reduction in yeast-induced fever of 1.5° C.); for Therapeutic quotient LD50/ED2.5: yeast-induced fever, LD50 7 days
Procedure: The antipyretic action is determined by the influence of the compounds to be tested on yeast-induced fever in rats.
Hyperthermia is produced in female Sprague-Dawley rats (in groups of 5 animals; weight of each animal: 160 to 180 g) by subcutaneous injection (neck) of 10 ml/kg of a 20 percent strength aqueous brewer's yeast suspension (brewer's yeast "Heliosan"/Hefereformwerk Radolfzell). 24 hours after the yeast injection, the compounds to be tested are administered orally to the animals in a volume of liquid of 5 ml/kg, and a control group receives the corresponding amount of tapwater. The feed (Altromin®R, water ad libitum) was withdrawn from the rats 18 hours beforehand. The rats are kept at about 23° C.
The body temperature is recorded 1 hour before administration of the substance and at hourly intervals after administration of the substance.
[…] The body temperature is measured with a temperature probe (Tastomed H, Braun electronic).

[4] = test system: carrageenin edema of the hind paw of rats; assay: Acute antiphlogistic action: carrageenin edema of the hind paw of rats after single oral administration; conditions: for ED50: Rattus norvegicus, po, read-out: ED50 (dose which causes a maximum edema inhibition of 50%); for Therapeutic quotient LD50/ED50: carrageenin edema, LD50 7 days oral; for Therapeutic quotient LD50/ED50 / Maximum inhibition of carrageenin edema within 7 hours after oral administration: rats
Procedure: (§1) Biol. Med., 111 (1962) 544]}, on chronic inflammatory processes {Cotton pellet test on rats [Winter et al.: J. Pharmacol. exp. Therap., 141 (1963) 369]} and on adjuvant arthritis [based on the method of Perrine et al., Brit. J. Pharmacol., 21 (1963) 127] is determined.
The influence of the compounds to be tested on carrageenin edema of the hind paw of rats was determined as follows:
The rats are kept at 24° C.
The paw volume of each rat is determined (2 to 3 individual measurements in each case) before edema provocation and at hourly intervals for 7 hours after edema provacation. The average percentage paw swelling of each treated group determined at the specified times after the carrageenin injection is related to that of the untreated control group (=100%).
The maximum percentage edema inhibition serves as a measure of the antiphlogistic action.
The paw volume is determined plethysmometrically. Measuring principle: the volume of liquid displaced through the paw of the rat is recorded digitally via an electromechanical pressure transducer (Statham P 23 V, 0-200 mm Hg).
The doses indicated for the compounds tested were administered in a volume of liquid of 20 ml/kg.

[5] = test system: adjuvant arthritis in rats; assay: Antiarthritic action: adjuvant arthritis in rats (Mycobacterium butyricum)
Procedure: as §1
The influence of the compounds to be tested on polyarthritis in rats caused by Mycobacterium butyricum (so-called "adjuvant arthritis") was determined using the experimental arrangement hereafter described: based on the method described by NEWBOULD and PERRINE et al. [NEWBOULD, B. B.; Brit. J. Pharmacol. 21, 127 (1963); and PERRINE, J. W. and TAKESUE, E. I.; Arch. int. Pharmacodyn., 174, 192 to 198 (1968)], so-called adjuvant arthritis, which manifests itself chiefly in a severe swelling of the tail (primary lesion) and of the paws (secondary lesion), is caused in rats by intradermal injection of a Mycobact. butyricum suspension in liquid paraffin into the base of the tail. Antiphlogistic agents inhibit this swelling reaction.

[6] = test system: pain reaction provoked in rats by bending an inflamed ankle (AgNO3 arthritis); assay: animal or person; assay type: in vivo
Procedure: Based on the method of HOFFMEISTER et al. [Arzneim. Forsch., 24, (1974) 600], 0.2 ml of a 1% strength silver nitrate solution is injected into the ankle joint (inside) of the right hind paw of female Sprague-Dawley rats (each animal weighing about 160 to 180 g) under ether anaesthesia. The animals are kept at 24° C. and are fed Altromin®R and water ad libitum. After the AgNO3 injection, almost all the animals (90 to 95%) can be made to cry out by moderate bending of the ankle joint. All the animals reacting positively are collected into groups of 10 animals. The compounds to be tested are administered orally in a volume of liquid of 10 ml/kg immediately after administration of the AgNO3; the untreated control animals receive the corresponding amount of tapwater.
Over a period of 4 hours after administration of the substance, the number of animals reacting is determined at half hourly intervals.
The maximum percentage of the protected animals over a period of 4 hours after administration of the substance [relative to the number of animals in the control group reacting (=100%)] serves as a measure of the analgesic action.

[7] = test system: rats; conditions: 7 days (Table 6)
[8] = test system: formation of granulation tissue after subcutaneous implantation of cotton; assay: Chronic antiphlogistic action: cotton pellet test (formation of granulation tissue) in rats; conditions: rats; for Therapeutic quotient LD50/ED20: cotton pellet test, LD50 7 days oral; for Inhibition of the formation of granulation tissue after treatment for 7 days: sodium salt
Procedure: as §1
Experimental procedure for investigating the influence of the compounds to be tested on the formation of granulation tissue after implantation of cotton in rats (so-called cotton pellet method):
1 cotton pellet (manufacturer: Messrs. Hartmann/Heidenheim; cotton pellets size 2, No. 4865/2) which weighs 13.0±0.5 mg and has been impregnated beforehand with 0.1 ml of a solution of 0.5 mg of penicillin G and 0.8 mg of streptomycin sulfate/1 ml of distilled water is in each case implanted subcutaneously into the shoulder-blade region, on both sides, of male Sprague-Dawley rats (groups of 8 animals each; weight of each animal: 150 to 170 g) under diethyl ether anaesthesia and under sterile conditions. The cut skin is closed by means of clamps.
The compounds to be tested (in the form of the sodium salt in aqueous solution) or the corresponding amount (5 ml/kg/day) of tapwater (=control group) are administered orally each day on seven successive days. On the eighth day, the animals are killed and the cotton granules are exposed carefully, that is to say preserving the fibrous tissue capsule, dried (15 hours at 120°) and weighed. By substracting the weight of the cotton pellets, the amount of newly formed granulation tissue is obtained.
The percentage reduction in the average granuloma dry weight of a treated group compared with the control group (=100%) serves as a measure of the antiproliferative action of a compound.

[9] = AgNO3 arthritis pain, LD50 7 days oral, rats
[10] = rats, single oral dose 0.3 mg/kg

## Cc1cccc(Nc2cscc2C(=O)O)c1Cl [2-chloro-3-methylphenyl derivative]
[1]
  actions: superior to those of phenylbutazone

## Cc1c(Cl)cccc1Nc1cscc1C(=O)O [2-methyl-3-chlorophenyl derivative]
[1]
  actions: superior to those of phenylbutazone

## O=C(O)c1cscc1Nc1c(Cl)cccc1Cl [Compound 1, 3-(2,6-dichloroanilino)thiophen-4-carboxylic acid]
[2]
  LD50 at 168 h: 120 mg/kg
[3]; rats, perorally, single dose
  ED (1.5 degC): 8.2 mg/kg
[3]; rats, single oral dose 1 mg/kg
  Maximum reduction in yeast-induced fever over a period of 7 hours: 0 °C
[3]; rats, single oral dose 3 mg/kg
  Maximum reduction in yeast-induced fever over a period of 7 hours: 0.6 °C
[3]; rats, single oral dose 10 mg/kg
  Maximum reduction in yeast-induced fever over a period of 7 hours: 1.7 °C
[3]; rats, single oral dose 30 mg/kg
  Maximum reduction in yeast-induced fever over a period of 7 hours: 2.1 °C
[1]
  actions: superior to those of phenylbutazone
[4]
  ED50: 56 mg/kg
  Therapeutic quotient LD50/ED50: 2.1
[4]; single oral dose 10.0 mg/kg
  Maximum inhibition of carrageenin edema within 7 hours after oral administration: 31%
[4]; single oral dose 100.0 mg/kg
  Maximum inhibition of carrageenin edema within 7 hours after oral administration: 57%
[5]; Rattus norvegicus, po, 120 h, read-out: ED25 (inhibition of adjuvant arthritis of 25%)
  ED25: 9 mg/kg/day
[5]; adjuvant arthritis, LD50 7 days oral, rats
  therapeutic quotient LD50/ED25: 13.3
[6]; [9]
  Therapeutic quotient LD50/ED50: 0.86
  therapeutic quotient LD50/ED25: 4
[6]; Rattus norvegicus, po, read-out: ED25 (dose which completely suppresses the pain reaction in 25% of the animals)
  ED25: 30 mg/kg
[6]; Rattus norvegicus, po, rats, perorally, at the time of maximum action, read-out: ED50 (dose which completely suppresses the pain reaction in 50% of the animals)
  ED50: 140 mg/kg
[6]; rats, single oral dose 3 mg/kg
  Inhibition of the pain reaction: 10%
[6]; rats, single oral dose 20 mg/kg
  Inhibition of the pain reaction: 20%
[6]; rats, single oral dose 100 mg/kg
  Inhibition of the pain reaction: 40%
[6]; rats, single oral dose 200 mg/kg
  Inhibition of the pain reaction: 60%

## Cc1cccc(Cl)c1Nc1cscc1CC(=O)O [Compound 4, 4-(2-chloro-6-methylanilino)-3-thiophenacetic acid]
[2]
  LD50 at 168 h: > 20 mg/kg
[3]; rats, perorally, single dose
  ED (1.5 degC): ~0.3 mg/kg
[3]; [10]
  Maximum reduction in yeast-induced fever over a period of 7 hours: 1.4 °C
[3]; rats
  Therapeutic quotient LD50/ED2.5: > 66.7
[4]
  ED50: 3 mg/kg
  Therapeutic quotient LD50/ED50: > 6.7
[4]; single oral dose 3.0 mg/kg
  Maximum inhibition of carrageenin edema within 7 hours after oral administration: 50%
[7]
  LD50, lethal action after administration for 7 days: > 20 mg/kg/day

## Cc1ccc(Cl)c(Nc2cscc2CC(=O)O)c1Cl [Compound 5, 4-(2,6-dichloro-3-methylanilino)-3-thiophenacetic acid]
[2]
  LD50 at 168 h: 8 mg/kg
[8]
  Therapeutic quotient LD50/ED20: 5
[8]; 7 x 1.0 mg/kg/day orally
  Inhibition of the formation of granulation tissue after treatment for 7 days: 16%
[8]; 7 x 3.0 mg/kg/day orally
  Inhibition of the formation of granulation tissue after treatment for 7 days: 26%
[3]; rats, perorally, single dose
  ED (1.5 degC): < 0.3 mg/kg
[3]; [10]
  Maximum reduction in yeast-induced fever over a period of 7 hours: 1.7 °C
[3]; rats
  Therapeutic quotient LD50/ED2.5: > 26.7

## O=C(O)Cc1sccc1Nc1c(Cl)cccc1Cl [Compound 6, 3-(2,6-dichloroanilino)-2-thiophenacetic acid]
[2]
  LD50 at 168 h: > 20 mg/kg
[3]; rats, perorally, single dose
  ED (1.5 degC): < 0.3 mg/kg
[3]; [10]
  Maximum reduction in yeast-induced fever over a period of 7 hours: 1.7 °C
[3]; rats
  Therapeutic quotient LD50/ED2.5: > 66.7
[4]
  ED50: ~3 mg/kg
  Therapeutic quotient LD50/ED50: > 6.7
[4]; single oral dose 3.0 mg/kg
  Maximum inhibition of carrageenin edema within 7 hours after oral administration: 52%
[7]
  LD50, lethal action after administration for 7 days: > 20 mg/kg/day

## Cc1cccc(Nc2cscc2CC(=O)O)c1Cl [Compound 7, 4-(2-chloro-3-methylanilino)-3-thiophenacetic acid]
[2]
  LD50 at 168 h: > 20 mg/kg
[8]
  Therapeutic quotient LD50/ED20: > 5.7
[8]; 7 x 3.0 mg/kg/day orally
  Inhibition of the formation of granulation tissue after treatment for 7 days: 19%
[8]; 7 x 10.0 mg/kg/day orally
  Inhibition of the formation of granulation tissue after treatment for 7 days: 27%

## Cc1c(Cl)cccc1Nc1cscc1CC(=O)O [Compound 8, 4-(3-chloro-2-methylanilino)-3-thiophenacetic acid]
[2]
  LD50 at 168 h: > 30 mg/kg
[4]
  ED50: ~3 mg/kg
  Therapeutic quotient LD50/ED50: > 10
[4]; single oral dose 3.0 mg/kg
  Maximum inhibition of carrageenin edema within 7 hours after oral administration: 49%

## Cc1cccc(C)c1Nc1cscc1CC(=O)O [Compound 9, 4-(2,6-dimethylanilino)-3-thiophenacetic acid]
[2]
  LD50 at 168 h: > 30 mg/kg
[8]
  Therapeutic quotient LD50/ED20: > 10
[8]; 7 x 3.0 mg/kg/day orally
  Inhibition of the formation of granulation tissue after treatment for 7 days: 19%
[3]; rats, perorally, single dose
  ED (1.5 degC): 0.3 mg/kg
[3]; rats, single oral dose 0.1 mg/kg
  Maximum reduction in yeast-induced fever over a period of 7 hours: 1.0 °C
[3]; [10]
  Maximum reduction in yeast-induced fever over a period of 7 hours: 1.5 °C
[3]; rats, single oral dose 1 mg/kg
  Maximum reduction in yeast-induced fever over a period of 7 hours: 2.3 °C
[3]; rats
  Therapeutic quotient LD50/ED2.5: > 100
[7]
  LD50, lethal action after administration for 7 days: > 30 mg/kg/day

## O=C(O)Cc1csc(Cl)c1Nc1c(Cl)cccc1Cl [Compound 10, 5-chloro-4-(2,6-dichloroanilino)-3-thiophenacetic acid]
[3]
  ED (1.5 degC): 0.5 mg/kg
[3]; [10]
  Maximum reduction in yeast-induced fever over a period of 7 hours: 1.2 °C
[3]; rats, single oral dose 0.6 mg/kg
  Maximum reduction in yeast-induced fever over a period of 7 hours: 1.6 °C

## Cc1cccc(Cl)c1Nc1ccsc1CC(=O)O [Compound 11, 3-(2-chloro-6-methylanilino)-2-thiophenacetic acid]
[2]
  LD50 at 168 h: > 20 mg/kg
[4]
  ED50: ~3 mg/kg
  Therapeutic quotient LD50/ED50: > 6.7
[4]; single oral dose 3.0 mg/kg
  Maximum inhibition of carrageenin edema within 7 hours after oral administration: 49%

## O=C(O)Cc1cscc1Nc1c(F)cccc1F [Compound 12, 4-(2,6-difluoroanilino)-3-thiophenacetic acid]
[2]
  LD50 at 168 h: > 30 mg/kg
[3]; rats, perorally, single dose
  ED (1.5 degC): 0.9 mg/kg
[3]; [10]
  Maximum reduction in yeast-induced fever over a period of 7 hours: 0.5 °C
[3]; rats, single oral dose 1 mg/kg
  Maximum reduction in yeast-induced fever over a period of 7 hours: 1.6 °C
[3]; rats
  Therapeutic quotient LD50/ED2.5: > 33
